Experimental data taken from patent publication US8410310B2, “Trypsin-like serine protease inhibitors, and their preparation and use” (The Medicines Company (Leipzig) GmbH, priority 2006, dated 2013).

Key:
[1] = test system: t-PA-induced lysis of whole blood clots; experiment: Whole blood fibrinolysis assay (ROTEM, EXTEM with t-PA); type: cell-based, human; conditions: for IC50: Ly60, read-out: concentration resulting in 50% suppression of clot lysis (IC50, median [25%; 75% percentile]); for potency at inhibiting clot lysis relative to tranexamic acid: whole blood and plasma clot lysis, versus tranexamic acid
Procedure: (§1) Venous blood was withdrawn from the antecubital vein from healthy volunteers after written informed consent in accordance with local and federal guidelines with approval of the local review board (Ethikkommission, Klinikum Charité, Sauerbruchweg 5, 10117 Berlin). The blood was mixed with 0.11 mol/L sodium citrate (1:10). For ROTEM® analysis, whole citrated blood was used within 8 h after collection. Platelet-rich plasma (PRP) was prepared from citrated blood by centrifugation at 330×g for 10 min at room temperature, platelet-poor plasma (PPP) was collected following centrifugation at 1220×g for 12 min. The PRP was then adjusted to 3×10^8 platelets per mL using the autologous PPP. PRP was maintained at room temperature for less than 4 h before analysis. The remaining PPP was subjected to a high-speed centrifugation at 40,000×g for 30 min at 4° C. to remove any particulate material and was then stored at −70° C. until use.
(§2) The antifibrinolytic activity of Compound No. 3 in comparison to aprotinin and tranexamic acid was investigated in plasma and whole blood assays. In both assays, tissue factor was added to initiate rapid clot formation via the extrinsic pathway which produces a clot that remains stable for several hours under normal conditions. Supplementation of plasma or whole blood with tissue-type plasminogen activator (t-PA) before stimulation results in activation of endogenous plasminogen and thus fibrinolysis while the initial clot formation is not impaired. […] A final concentration of 50 U/mL and 100 U/mL in plasma and whole blood, respectively, was chosen to achieve complete lysis within about 60 min. In the presence of antifibrinolytics, clot lysis is delayed in a concentration-dependent manner.
Fibrinolysis in whole blood was studied with rotational thromboelastometry (Luddington, Clin. Lab. Haematol. 27: 81-90, 2005) using a computerized, multi-channel ROTEM® instrument (Pentapharm, Munich, Germany) (Ganter et al., Anesth. Analg. 106: 1366-75, 2008). Activation of test samples accelerated the measurement process and enhanced reproducibility compared with conventional thromboelastography. To allow observation of fibrinolysis, ROTEM® analysis with tissue factor activation (EXTEM) was modified through addition of t-PA (Nielsen et al. Blood Coagul. Fibrinolysis 17: 75-81, 2006). Citrated blood was pre-incubated at 37° C. for 5 min with test compound or saline before tissue factor, CaCl2 and t-PA (100 U/mL final concentration) were added to start the reaction. Fibrinolysis was determined by measuring loss of clot strength with time and was recorded as Ly60 (percentage reduction of the maximum amplitude at 60 min after the onset of clotting). In control samples without inhibitor, clots were lysed completely within 60 min, such that Ly60 was above 90%. By plotting Ly60 versus test compound concentration, IC50 values for each compound were calculated.

[2] = test system: t-PA-induced fibrinolysis in plasma; experiment: Plasma fibrinolysis assay (turbidometric); type: biochemical; conditions: human plasma, t-PA 50 U/mL; for IC50: read-out: IC50 on t-PA-induced fibrinolysis in plasma (median [25%; 75% percentile])
Procedure: as §1, §2
Inhibition of fibrinolysis in plasma was examined using a turbidometric method in 96-well flat-bottom plates. The time course of clot formation and lysis, reflected by an initial increase and subsequent decrease in turbidity, was recorded by continuously measuring the optical density (OD) at 405 nm. Similar models have been used widely to study the clot lysis process in human plasma (Kim et al., J. Thromb. Haemost. 5: 1250-6, 2007) as well as its inhibition by antifibrinolytic drugs (Sperzel et al., J. Thromb. Haemost. 5: 2113-8, 2007). Frozen and thawed human plasma (PPP) was pre-incubated with test compound or vehicle (Owren's Veronal buffer) for 5 min at 37° C. […] OD at 405 nm was monitored every 45 s for 180 min at 37° C. with a microplate reader (POLARstar OPTIMA, BMG Labtech, Offenburg, Germany). Fibrinolysis was quantified as the relative decrease in OD at 45 min after the maximum OD was reached. […]

[3] = test system: coagulation in human plasma (PPP); experiment: Plasma coagulation times (prothrombin time, activated partial thromboplastin time); type: biochemical; conditions: for plasma coagulation times (prothrombin time, activated partial thromboplastin time): 100 to 1000 nM
Excerpt: (§3) Since Compound No. 3 inhibits multiple proteases of the coagulation system, we investigated possible anticoagulant properties using established tests in vitro. Whereas tissue factor is the physiologic trigger of coagulation, both extrinsic and contact-mediated stimulation contribute to hemostatic activation under conditions like CPB (Boisclair et al. Blood 82: 3350-7, 1993 and Edmunds et al., Ann. Thorac. Surg. 82: 2315-22, 2006). We therefore studied the impact of Compound No. 3 and aprotinin on coagulation in plasma and whole blood following both intrinsic and extrinsic stimulation. Tranexamic acid has no influence on other proteases than plasminogen and, therefore, is not included in these experiments.
Prothrombin time and activated partial thromboplastin time were determined after human plasma (PPP) was supplemented with test compound solution or saline using a conventional coagulation analyzer (Sysmex CA-560, Dade Behring). Reagents used were Innovin® (extrinsic activator containing tissue factor) for prothrombin time and Actin® FSL (contact activator containing ellagic acid and phospholipids) for activated partial thromboplastin time, both from Dade Behring (Eschborn, Germany).

whole blood clotting = experiment: Whole blood coagulation assay (ROTEM, INTEM/EXTEM); type: cell-based, human; conditions: for whole blood coagulation times (INTEM, EXTEM clotting time): 100 to 1000 nM; for clot strength (ROTEM maximum amplitude): over the concentration range tested (data not shown)
Excerpt: as §3
The influence on whole blood clotting was assayed with rotational thrombelastometry (Ganter et al., Anesth. Analg. 106: 1366-75, 2008) using ellagic acid (INTEM reagent) as activator of the intrinsic system or tissue factor (EXTEM reagent) as extrinsic coagulation activator. Following a 5-min pre-incubation with test compounds or saline, citrated human blood was subjected to ROTEM® analysis according to the manufacturer's instructions. ROTEM® clotting time (equal to reaction time, r) and maximum clot strength (equal to maximum amplitude) were obtained as coagulation parameters.

[4] = human whole blood, t-PA 100 U/mL
[5] = higher aprotinin concentrations (data not shown)

IC50 of clot lysis expressed in KIU/mL ([1]; human whole blood, t-PA 100 U/mL, converted from nM) [KIU/mL]	IC50 on t-PA-induced fibrinolysis in plasma expressed in KIU/mL ([2]; converted from nM) [KIU/mL]	Compound	IC50 [1, 4] [nM]	concentration that largely suppresses clot lysis / effective inhibition ([1]; whole blood ROTEM, t-PA-induced lysis) [nM]	potency at inhibiting clot lysis relative to tranexamic acid [1] [fold]	IC50 [2] [nM]	plasma coagulation times (prothrombin time, activated partial thromboplastin time) [3]	whole blood coagulation times (INTEM, EXTEM clotting time) (whole blood clotting)	clot strength (ROTEM maximum amplitude) (whole blood clotting)	activated partial thromboplastin time [3, 5]	extrinsic coagulation [3, 5]	intrinsic ROTEM clotting times (whole blood clotting; [5])
–	–	N=C(N)c1ccc(CNC(=O)[C@H](Cc2cccc(CN)c2)NC(=O)[C@@H](CCCc2ccccc2)NS(=O)(=O)Cc2cccc(C(=O)O)c2)cc1 [compound 3, 3-HOOC-Bzls-d-Ppg-Phe(3-Ame)-4-Amba×2 acetate]	150	600	~10	315	significant prolongation	significant prolongation	Neither Compound No. 3 nor aprotinin impaired clot strength	–	–	–
16	15	aprotinin	345	–	~10	327	almost no influence	almost no influence	Neither Compound No. 3 nor aprotinin impaired clot strength	marked prolongation	not affected	marked prolongation
